# Test results taken from patent US8809554B2, “Process for the preparation of sulfamide derivatives” (Janssen Pharmaceutica NV, priority 2011, dated 2014).
# Several values for one entry are separate records, joined by “and”; a condition that tells them apart may be missing. Equal values may be shown once.
# Assay: Solubility of the compound of formula (I-S) in toluene as a function of OPPh3 concentration
# Type: physicochemical
# Details: 21° C.
compound,measurement,setting,value
"NS(=O)(=O)NC[C@H]1COc2cc(Cl)ccc2O1 [compound of formula (I-S), N-[[(2S)-6-chloro-2,3-dihydro-1,4-benzodioxin-2-yl]methyl]-sulfamide]",Solubility (g/100 g toluene),OPPH3 0.05 mol/L,1.6 g/100 g toluene
same,Solubility (g/100 g toluene),OPPH3 0.10 mol/L,2.3 g/100 g toluene
same,Solubility (g/100 g toluene),OPPH3 0.15 mol/L,4.2 g/100 g toluene
same,Solubility (g/100 g toluene),OPPH3 0.20 mol/L,5.9 g/100 g toluene and 5.0 g/100 g toluene
same,Solubility (g/100 g toluene),OPPH3 0.25 mol/L,6.0 g/100 g toluene
same,Solubility (g/100 g toluene),OPPH3 0.30 mol/L,8.2 g/100 g toluene
same,Solubility (g/100 g toluene),OPPH3 0.40 mol/L,9.6 g/100 g toluene
same,"Solubility, trend with OPPh3 concentration",OPPh3 0.05-0.40 mol/L,increases with increased OPPh3 concentration
